# Results: patent publication US5294611A, “Angiotensin II receptor blocking 2,3,6 substituted quinazolinones” (American Cyanamid Company, priority 1993, dated 1994)
# Where two headings read alike, the source gives them in different places.
# Test system: Angiotensin II (AII) vasopressor response
# Test: AII Challenge: antagonism of angiotensin II vasopressor response in conscious spontaneously hypertensive rats
# Type: in vivo, rat (male okamoto-Aoki SHR)
# Details: for inhibition in vivo at 10 mg/kg / inhibition in vivo at 5 mg/kg: Rattus norvegicus; for inhibition in vivo at 10 mg/kg: iv; for inhibition in vivo at 10 mg/kg / inhibition in vivo at 5 mg/kg / Average Change: SHR n=2; for inhibition in vivo at 5 mg/kg: po, read-out: Inhibition; for Change: single SHR
# From the text: Conscious Male okamoto-Aoki SHR, 16-20 weeks old, weighing approximately 330 g are purchased from Charles River Labs (Wilmington, Mass.). Conscious rats are restrained in a supine position with elastic tape. The area at the base of the tail is locally anesthetized by subcutaneous infiltration with 2% procaine. […] The cannula is secured, heparinized (1,000 I.U./ml), sealed and the wound is closed. The animals are placed in plastic restraining cages in an upright position. The cannula is attached to a Statham P23Db pressure transducer, and pulsatile blood pressure is recorded to 10-15 minutes with a Gould Brush recorder. […] Angiotensin II (human sequence, Sigma Chem. Co., St. Louis, Mo.) of 0.05 and 0.1 ug/kg i.v. is injected into all rats (predosing response). Then a test compound, vehicle or a known angiotensin II antagonist is administered i.v., i.p. or orally to each set of rats. […] The vasopressor response of angiotensin II is measured for the increase in systolic blood pressure in mmHg.
# [1] = 5 mg/kg P.O., AII 0.05 mcg/kg IV, 90 min post dose
# [2] = 10 mg/kg I.V., AII 0.05 mcg/kg IV, 30 min post dose
# [3] = 10 mg/kg I.V., AII 0.05 mcg/kg IV, 90 min post dose
# [4] = 10 mg/kg I.V., AII 0.1 mcg/kg IV, 180 min post dose
# [5] = 10 mg/kg I.V., AII dose not given, 120 min post dose
compound,measurement,setting,value
CCCCc1nc2ccc([C@@H]3[C@H]4C(=O)CCC[C@H]4ON3C)cc2c(=O)n1Cc1ccc(-c2ccccc2-c2nnn[nH]2)cc1 (relative stereo) [Example 49],inhibition in vivo at 10 mg/kg,"0.5 h, 10 mg/kg I.V., AII 0.05 mcg/kg IV, 30 min post dose",100%
same,inhibition in vivo at 10 mg/kg,"0.5 h, 10 mg/kg I.V., AII 0.1 mcg/kg IV, 30 min post dose",88%
same,inhibition in vivo at 10 mg/kg,"1 h, 10 mg/kg I.V., AII 0.01 mcg/kg IV (so in the source), 60 min post dose",86%
same,inhibition in vivo at 10 mg/kg,"1 h, 10 mg/kg I.V., AII 0.05 mcg/kg IV, 60 min post dose",97%
same,inhibition in vivo at 10 mg/kg,"2 h, 10 mg/kg I.V., AII 0.05 mcg/kg IV, 120 min post dose",86%
same,inhibition in vivo at 10 mg/kg,"2 h, 10 mg/kg I.V., AII dose not given, 120 min post dose",81%
same,inhibition in vivo at 10 mg/kg,"3 h, 10 mg/kg I.V., AII 0.05 mcg/kg IV, 180 min post dose",67%
same,inhibition in vivo at 10 mg/kg,"3 h, 10 mg/kg I.V., AII 0.1 mcg/kg IV, 180 min post dose",63%
same,inhibition in vivo at 10 mg/kg,"[…], 10 mg/kg I.V., AII 0.05 mcg/kg IV, 90 min post dose",87%
same,inhibition in vivo at 10 mg/kg,"[…], 10 mg/kg I.V., AII 0.1 mcg/kg IV, 90 min post dose",86%
same,inhibition in vivo at 5 mg/kg,"0.5 h, 5 mg/kg P.O., AII 0.05 mcg/kg IV, 30 min post dose",37%
same,inhibition in vivo at 5 mg/kg,"0.5 h, 5 mg/kg P.O., AII 0.1 mcg/kg IV, 30 min post dose",38%
same,inhibition in vivo at 5 mg/kg,"1 h, 5 mg/kg P.O., AII 0.05 mcg/kg IV, 60 min post dose",59%
same,inhibition in vivo at 5 mg/kg,"1 h, 5 mg/kg P.O., AII 0.1 mcg/kg IV, 60 min post dose",29%
same,inhibition in vivo at 5 mg/kg,"2 h, 5 mg/kg P.O., AII 0.05 mcg/kg IV, 120 min post dose",41%
same,inhibition in vivo at 5 mg/kg,"2 h, 5 mg/kg P.O., AII 0.1 mcg/kg IV, 120 min post dose",55%
same,inhibition in vivo at 5 mg/kg,"3 h, 5 mg/kg P.O., AII 0.05 mcg/kg IV, 180 min post dose",63%
same,inhibition in vivo at 5 mg/kg,"3 h, 5 mg/kg P.O., AII 0.1 mcg/kg IV, 180 min post dose",35%
same,inhibition in vivo at 5 mg/kg,"4 h, 5 mg/kg P.O., AII 0.05 mcg/kg IV, 240 min post dose",34%
same,inhibition in vivo at 5 mg/kg,"4 h, 5 mg/kg P.O., AII 0.1 mcg/kg IV, 240 min post dose",36%
same,inhibition in vivo at 5 mg/kg,"[…], 5 mg/kg P.O., AII 0.05 mcg/kg IV, 90 min post dose",56%
same,inhibition in vivo at 5 mg/kg,"[…], 5 mg/kg P.O., AII 0.1 mcg/kg IV, 90 min post dose",59%
same,Average Change,"5 mg/kg P.O., AII 0.05 mcg/kg IV, 30 min post dose",21.5 mmHg
same,Average Change,"5 mg/kg P.O., AII 0.05 mcg/kg IV, 60 min post dose",14 mmHg
same,Average Change,[1],15 mmHg
same,Average Change,"5 mg/kg P.O., AII 0.05 mcg/kg IV, 120 min post dose",20 mmHg
same,Average Change,"5 mg/kg P.O., AII 0.05 mcg/kg IV, 180 min post dose",12.5 mmHg
same,Average Change,"5 mg/kg P.O., AII 0.05 mcg/kg IV, 240 min post dose",22.5 mmHg
same,Average Change,"5 mg/kg P.O., AII 0.1 mcg/kg IV, 30 min post dose",26.5 mmHg
same,Average Change,"5 mg/kg P.O., AII 0.1 mcg/kg IV, 60 min post dose",30 mmHg
same,Average Change,"5 mg/kg P.O., AII 0.1 mcg/kg IV, 90 min post dose",17.5 mmHg
same,Average Change,"5 mg/kg P.O., AII 0.1 mcg/kg IV, 120 min post dose",19 mmHg
same,Average Change,"5 mg/kg P.O., AII 0.1 mcg/kg IV, 180 min post dose",27.5 mmHg
same,Average Change,"5 mg/kg P.O., AII 0.1 mcg/kg IV, 240 min post dose",27 mmHg
same,Average Change,"10 mg/kg I.V., AII 0.01 mcg/kg IV (so in the source), 60 min post dose",7.5 mmHg
same,Average Change,[2],0 mmHg
same,Average Change,"10 mg/kg I.V., AII 0.05 mcg/kg IV, 60 min post dose",1 mmHg
same,Average Change,[3],5 mmHg
same,Average Change,"10 mg/kg I.V., AII 0.05 mcg/kg IV, 120 min post dose",5.5 mmHg
same,Average Change,"10 mg/kg I.V., AII 0.05 mcg/kg IV, 180 min post dose",12.5 mmHg
same,Average Change,"10 mg/kg I.V., AII 0.1 mcg/kg IV, 30 min post dose",6.5 mmHg
same,Average Change,"10 mg/kg I.V., AII 0.1 mcg/kg IV, 90 min post dose",7.5 mmHg
same,Average Change,[4],20 mmHg
same,Average Change,[5],10 mmHg
same,Change,[1],15 mmHg
same,Change,[2],0 mmHg
same,Change,[3],5 mmHg
same,Change,[4],20 mmHg
same,Change,[5],10 mmHg
